Measurements published in US10597388B2, “Pyridazinone herbicides” (FMC CORPORATION, priority 2014, dated 2020).

Assays:
Type in all cases: in vivo
[1] = test system: chickweed (common chickweed, Stellaria media); test: Test C greenhouse herbicide test, postemergence; details: for Plant response rating, Chickweed: scale 0 to 100 (0 no effect, 100 complete control)
Summary of the method: (§1)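 Steps: pot plants in peat-based medium; spray postemergence at 1- to 4-leaf stage; hold in greenhouse 13 to 15 d; score visually against controls from 0 (no effect) to 100 (complete control).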

[2] = test system: oat, wild (wild oat, Avena fatua); test: Test C greenhouse herbicide test, postemergence; details: for Plant response rating, Oat, Wild: scale 0 to 100 (0 no effect, 100 complete control)
Summary of the method: as §1

[3] = test system: kochia (Kochia scoparia); test: Test C greenhouse herbicide test, postemergence
Summary of the method: as §1

[4] = test system: ryegrass, Italian (Italian ryegrass, Lolium multiflorum); test: Test C greenhouse herbicide test, pre- and postemergence
Summary of the method: (§2)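 Visual ratings on a 0 to 100 scale (0 = no effect, 100 = complete control) versus untreated controls, scored 13–15 d after treatment. Soil-applied preemergence to seeded loam/sand; foliar postemergence to 1- to 4-leaf plants (2–18 cm) in peat-vermiculite mix; compounds formulated in solvent plus surfactant.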

[5] = test system: galium (catchweed bedstraw, Galium aparine); test: as above
Summary of the method: as §2

[6] = test system: velvetleaf (Abutilon theophrasti); test: as above
Summary of the method: as §2

[7] = test system: pigweed (Amaranthus retroflexus); test: as above
Summary of the method: as §2

[8] = test system: barnyardgrass (Echinochloa crus-galli); test: as above
Summary of the method: as §2

[9] = test system: blackgrass (Alopecurus myosuroides); test: as above
Summary of the method: as §2

[10] = test system: soybean (Glycine max); test: as above
Summary of the method: as §2

[11] = test system: ragweed (common ragweed, Ambrosia elatior); test: as above
Summary of the method: as §2

[12] = test system: nutsedge, yellow (yellow nutsedge, Cyperus esculentus); test: as above
Summary of the method: as §2

[13] = test system: galium (catchweed bedstraw, Galium aparine); test: Test A greenhouse herbicide test, postemergence
Summary of the method: (§3)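 Visual injury score, 0 (no effect) to 100 (complete control), versus untreated controls roughly 10 d after postemergence spray; plants at one- to two-leaf stage, 2 to 10 cm tall, in loam soil and sand, kept in greenhouse.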

[14] = test system: blackgrass (Alopecurus myosuroides); test: Test A greenhouse herbicide test, postemergence
Summary of the method: as §3

[15] = Postemergence, 31 g ai/ha, 0 to 100 scale (0 no effect, 100 complete control)
[16] = postemergence, 62 g ai/ha, scale 0 to 100, 0 no effect, 100 complete control
[17] = Postemergence, 16 g ai/ha, scale 0 to 100 (0 no effect, 100 complete control)
[18] = Postemergence, 8 g ai/ha, scale 0 to 100 (0 no effect, 100 complete control)
[19] = Preemergence, 16 g ai/ha, scale 0 to 100, 0 is no effect, 100 is complete control
[20] = Preemergence, 31 g ai/ha, scale 0 to 100, 0 is no effect, 100 is complete control
[21] = Preemergence, 62 g ai/ha, scale 0 to 100, 0 is no effect, 100 is complete control
[22] = Preemergence, 8 g ai/ha, scale 0 to 100, 0 is no effect, 100 is complete control
[23] = 125 g ai/ha, visual rating after approx. 10 d, 0 to 100 scale (0 no effect, 100 complete control)
[24] = 500 g ai/ha, 0 to 100 scale, 0 is no effect, 100 is complete control

SMILES: Cc1nn(C)c(=O)c(-c2c(C)sc3c(C)cc(Cl)cc23)c1O [Compound 35]
- Plant response rating, Chickweed ([1]; Postemergence, 8 g ai/ha): 90
- Plant response rating, Chickweed ([1]; Postemergence, 16 g ai/ha): 90
- Chickweed plant response rating [1, 15]: 95
- Chickweed plant response rating [1, 16]: 95
- Plant response rating, Oat, Wild ([2]; Postemergence, 8 g ai/ha): 10
- Plant response rating, Oat, Wild ([2]; Postemergence, 16 g ai/ha): 30
- Oat, Wild plant response rating [2, 15]: 40
- Oat, Wild plant response rating [2, 16]: 60
- Plant response rating, Kochia [3, 17]: 30
- Kochia plant response rating [3, 15]: 30
- Kochia plant response rating [3, 16]: 40
- Plant response rating, Ryegrass, Italian [4, 18]: 10
- Plant response rating, Ryegrass, Italian [4, 17]: 30
- Ryegrass, Italian plant response rating [4, 15]: 35
- Plant response rating, Ryegrass, Italian [4, 19]: 50
- Plant response rating, Ryegrass, Italian [4, 20]: 65
- Plant response rating, Ryegrass, Italian [4, 21]: 70
- Ryegrass, Italian plant response rating [4, 16]: 55
- Plant response rating, Galium [5, 18]: 90
- Plant response rating, Galium [5, 17]: 90
- Galium plant response rating [5, 15]: 90
- Plant response rating, Galium [5, 19]: 90
- Plant response rating, Galium [5, 20]: 90
- Plant response rating, Galium [5, 21]: 95
- Galium plant response rating [5, 16]: 95
- Plant response rating, Velvetleaf [6, 18]: 60
- Plant response rating, Velvetleaf [6, 17]: 75
- Velvetleaf plant response rating [6, 15]: 100
- Plant response rating, Velvetleaf [6, 19]: 0
- Plant response rating, Velvetleaf [6, 20]: 40
- Plant response rating, Velvetleaf [6, 21]: 85
- Velvetleaf plant response rating [6, 16]: 100
- Plant response rating, Pigweed [7, 18]: 35
- Plant response rating, Pigweed [7, 17]: 25
- Pigweed plant response rating [7, 15]: 60
- Plant response rating, Pigweed [7, 19]: 75
- Plant response rating, Pigweed [7, 20]: 75
- Plant response rating, Pigweed [7, 21]: 80
- Pigweed plant response rating [7, 16]: 55
- Plant response rating, Barnyardgrass [8, 18]: 10
- Plant response rating, Barnyardgrass [8, 17]: 10
- Barnyardgrass plant response rating [8, 15]: 20
- Plant response rating, Barnyardgrass [8, 22]: 0
- Plant response rating, Barnyardgrass [8, 19]: 5
- Plant response rating, Barnyardgrass [8, 20]: 5
- Plant response rating, Barnyardgrass [8, 21]: 25
- Barnyardgrass plant response rating [8, 16]: 20
- Plant response rating, Blackgrass [9, 18]: 0
- Plant response rating, Blackgrass [9, 17]: 5
- Blackgrass plant response rating [9, 15]: 15
- Plant response rating, Blackgrass [9, 22]: 5
- Plant response rating, Blackgrass [9, 19]: 40
- Plant response rating, Blackgrass [9, 20]: 50
- Plant response rating, Blackgrass [9, 21]: 55
- Blackgrass plant response rating [9, 16]: 45
- Plant response rating, Soybean [10, 18]: 0
- Plant response rating, Soybean [10, 17]: 0
- Soybean plant response rating [10, 15]: 0
- Plant response rating, Soybean [10, 19]: 0
- Plant response rating, Soybean [10, 20]: 0
- Plant response rating, Soybean [10, 21]: 0
- Soybean plant response rating [10, 16]: 5
- Plant response rating, Ragweed [11, 18]: 0
- Plant response rating, Ragweed [11, 17]: 0
- Ragweed plant response rating [11, 15]: 25
- Plant response rating, Ragweed [11, 19]: 0
- Plant response rating, Ragweed [11, 20]: 5
- Plant response rating, Ragweed [11, 21]: 40
- Ragweed plant response rating [11, 16]: 40
- Plant response rating, Nutsedge, Yellow [12, 18]: 45
- Plant response rating, Nutsedge, Yellow [12, 17]: 60
- Nutsedge, Yellow plant response rating [12, 15]: 75
- Plant response rating, Nutsedge, Yellow [12, 19]: 20
- Plant response rating, Nutsedge, Yellow [12, 20]: 20
- Plant response rating, Nutsedge, Yellow [12, 21]: 40
- Nutsedge, Yellow plant response rating [12, 16]: 85
- Plant response rating, Galium [13, 23]: 100
- Galium plant response rating [13, 24]: 100
- Plant response rating, Blackgrass [14, 23]: 70
- Blackgrass plant response rating [14, 24]: 80
